Biological target: FXa (Homo sapiens, UniProt P00742)
Test: Inhibition of factor Xa (Table 1, Pharmacological Data)
Type: biochemical

Chain of FXa (P00742 235-488 limits assumed): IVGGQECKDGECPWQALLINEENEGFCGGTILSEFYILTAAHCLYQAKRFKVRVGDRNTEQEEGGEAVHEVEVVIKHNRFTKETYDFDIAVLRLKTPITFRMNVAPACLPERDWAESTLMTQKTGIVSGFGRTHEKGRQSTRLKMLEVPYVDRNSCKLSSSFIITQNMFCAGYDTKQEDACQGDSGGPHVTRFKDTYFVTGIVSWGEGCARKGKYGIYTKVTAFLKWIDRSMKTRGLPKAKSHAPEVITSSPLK
Chain of FXa (P00742 41-179 limits assumed): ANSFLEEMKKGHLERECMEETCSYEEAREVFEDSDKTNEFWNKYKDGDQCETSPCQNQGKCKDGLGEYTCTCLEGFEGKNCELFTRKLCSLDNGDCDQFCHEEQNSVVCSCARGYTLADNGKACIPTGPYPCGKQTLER

| IC50 | SMILES |
| --- | --- |
| 0.075 µM | C#Cc1ccc(NC(=O)N2CCCN2C(=O)Nc2ccc(N3CCOCC3=O)c(Cl)c2)cc1 [Compound A1, 1-N-[(4-Ethynylphenyl)]-2-N-{[3-chloro-4-(3-oxomorpholin-4-yl)phenyl]}-pyrazolidine-1,2-dicarboxamide] |
| 0.055 µM | O=C(Nc1ccc(Br)cc1)N1CCCN1C(=O)Nc1ccc(-n2ccccc2=O)cc1 [Compound A3, 1-N-[(4-bromophenyl)]-2-N-{[4-(2-oxo-2H-pyridin-1-yl)phenyl]}pyrazolidine-1,2-dicarboxamide] |
| 0.12 µM | O=C1COCCN1c1ccc(NC(=O)N2CCCN2C(=O)Nc2ccc(Cl)cc2)cc1Cl [Compound A2, 1-N-[(4-chlorophenyl)]-2-N-{[3-chloro-4-(3-oxomorpholin-4-yl)phenyl]}-pyrazolidine-1,2-dicarboxamide] |

Source: patent US7557102B2, “Pyrazolidine-1,2-dicarboxyldiphenylamide derivatives as coagulation factor Xa inhibitors for the treatment of thromboses” (Merck Patent GmbH, priority 2003, dated 2009)
